Reference: patent US20220062340A1, “IMMUNOTHERAPEUTIC METHODS AND COMPOSITIONS” (KING'S COLLEGE LONDON, priority 2018, published 2022)

Legend:
integrin β7 on Tregs = assay: Dose response of integrin β7 induction on expanded Tregs; type: cell-based; conditions: Homo sapiens; Tregs in in vitro culture, FIG. 2c; read-out: EC50 to induce the expression of integrin β7
Experimental: FACS-sorted Treg populations were plated at 1×10^6 or 0.5×10^6 in X-VIVO-15 medium and activated with anti-CD3/anti-CD28 coated beads (Dynabeads®, Invitrogen, Paisley, UK) at 1:1 bead: cell ratio. Rapamycin was added at day 0 of culture at a final concentration of 100 nM/L +/−ATRA 1 nM/L or RAR568 1 nM/L. Next, 1,000 IU/ml recombinant human IL-2 (rhlL-2) (Proleukin®, Novartis, Camberley, UK) was added at day 5 of culture. Cells were re-stimulated every 10-12 days and expanded for a total of 24-30 days. The phenotype and suppressive ability were assessed at the end of the culture period.
Flow cytometry panels have been designed to assess the subtypes of regulatory T cells in patients with CD as well as their expression of gut homing molecules. Gating was performed based on natural populations when assessing for CD4^+CD25^highCD127low populations, as well as for CD45RA^+ Treg populations. Additionally, to minimize bias in the assessment of expression of gut homing markers and transcription factors, a fluorochrome minus one (FMO) panel was added for each marker of interest in each experiment that was performed.

Effector T cells (Teff) = assay: Treg suppression assay (proliferation of CFSE-labelled Teff); type: cell-based, human; conditions: lowest (8:1) Teff:Treg titration, FIG. 2e
Experimental: Effector T cells (Teff) were labelled with carboxyfluorescein succinimidyl ester (CFSE, Invitrogen) according to standard protocols. Cells were washed with phosphate buffered saline (PBS) to remove excess protein. Cells were then incubated with a 1 μM/L CFSE solution in the dark at room temperature for 4 minutes. The reaction was then quenched with 9 ml of complete medium.
Teff were activated with anti-CD3/anti-CD28 micro beads at a bead: Teff ratio of 0.02:1. 1×10^5 Teff were then cultured either alone or with Tregs in serial dilutions. The ratios of Teff: Treg were 1:1, 2:1, 4:1, and 8:1. This was done in X-VIVO-15 and proliferation rates were assessed by flow cytometry after 5 days of incubation.
Percentage suppression (S) of proliferation was calculated using the following formula:
Where c=percentage of proliferating precursors in the presence of Tregs and d=percentage of proliferating precursors in the absence of Tregs.

Ex vivo expanded Tregs = assay: IL-17 and IFNγ production under pro-inflammatory cytokine challenge (ELISA); type: cell-based, human; conditions: Tregs expanded ex vivo in the presence of the agonist, FIG. 2f
Experimental: Cytokine concentrations were measured using the Ready-SET-Go sandwich ELISA kits from eBioscience.
Ex vivo expanded Tregs were activated with CD3/CD28 beads at a 1:20 ratio and cultured at 10^6cells/m1 in X-VIVO for 5 days at 37° C./5% CO2, supplemented with the following cytokine cocktail: A) IL-2 (10 IU/mL, Proleukin); (B) IL-2, IL-1 (10 ng/mL), IL-6 (4 ng/mL) and transforming growth factor-β (TGF-β (5 ng/mL), IL-21 (25 ng/mL), IL-23 (25 ng/mL) (all R&D Systems). Supernatant IL-17 and interferon gamma (IFNγ) concentrations were measured by ELISA.

MAdCAM-1 = assay: In-vitro trafficking assay, MAdCAM-1 coated Ibidi flow chamber; type: cell-based, human; conditions: agonist-treated Tregs from CD patients compared to cells expanded under standard conditions
Experimental: Ibidi (Martinsreid, Germany) μ-Slides VI″ were coated with recombinant human MAdCAM-1 (R&D Systems, Minneapolis, Minn.), at a concentration of 10μg/ml and incubated overnight. Cells from two CD patients that had previously undergone ex vivo expansion under two parallel conditions (Rapa and Rapa+RAR568) and had been frozen in liquid nitrogen were defrosted and rested overnight. Rested cells were then activated with rhCCL25 (R&D systems) and passed through the coated Ibidi flow chamber at a rate of 1 dyne/cm^2. The total number of cells, as well as those rolling, adherent and crawling was quantified from six randomly selected fields of view per treatment.
In order to assess the physiological relevance of the induction of α4β7 expression by RAR568, treated and untreated Tregs from CD patients were passed through a MAdCAM-1 coated flow chamber (FIG. 10). The total number of cells adherent to the chamber, as well as their stages of rolling, adhesion and crawling, were compared to cells that were expanded under standard conditions.

[1] = tested on: integrin α4β7 on Treg surface; assay: Induction of integrin α4β7 on bulk Treg surface by RARα agonists (FIG. 6); type: cell-based; conditions: bulk CD4+CD25+CD127− Tregs, 12 days stimulation, reducing agonist concentrations
Experimental: Bulk Tregs (CD4+CD25+CD127−) Tregs (50,000 per well) were expanded in vitro with reducing concentrations of the agonists. Culture conditions: 2 aCD3/aCD28 beads/cell, 1000IU/mL IL-2, 0.1 nM Rapamycin+Agonist in X-vivo 15. Following 12 days stimulation, cells were stained for CD4, CD25, CD127, FOXP3, Integrin a4, Integrin b7, CD15s, CD161 and acquired on a BD symphony flow cytometer. Data was analysed in Flowjo and Prism.

CD62L on Tregs = assay: CD62L expression following ex vivo expansion; type: cell-based, human; conditions: FIG. 9
Excerpt: To address the balance between regulatory and effector T cells in the lamina propria of patients with CD, we sought to develop a highly suppressive, phenotypically stable population of autologous ex vivo expanded Tregs that were licensed to traffic to the gut by high level expression of α4β7. These cells could then be utilized as an autologous cell-based therapy for CD. We compared the efficacy of ATRA with RAR568 at inducing α4β7, to determine which agent would be more suitable for downstream application in a clinical trial of Treg therapy for CD. As previously defined^22, our standard culture conditions used the CD4^+CD25^hiCD127^loCD45RA^+ nïave Treg subset, cultured in the presence of rapamycin (RAPA) and high dose IL-2. […] Additionally, cells cultured in the presence of RAR568 cumulatively expressed more α4β7 than those cultured in the presence of ATRA (95.89±1.93 vs 74.21±25.89, p=0.024; FIG. 2b). […] The expression of CD62L, required for homing to the lymph nodes and the effective interaction between integrin α4β7 and its ligand MAdCAM-1 was maintained following ex vivo expansion, irrespective of retinoid treatment (FIG. 9).

CCOc1c(Cl)cc(C(=O)Nc2ccc(C(=O)O)c(C)c2)cc1OC(C)C [RAR568]
EC50 (integrin β7 on Tregs): 0.01 nM | Suppressive ability of expanded Tregs (Effector T cells (Teff)): highly suppressive even at the lowest (8:1) titration | IFNγ production following pro-inflammatory cytokine challenge (Ex vivo expanded Tregs): did not produce | IL-17 production following pro-inflammatory cytokine challenge (Ex vivo expanded Tregs): did not produce | total cells and cells rolling, adherent and crawling in MAdCAM-1 coated flow chamber (MAdCAM-1): significantly more total cells as well as cells at each condition of migration | induction of integrin α4β7 on Treg surface [1]: comparable effects | expression of CD62L following expansion (CD62L on Tregs): not affected
